Calls of active or inactive are those of the source.
Experiments:
[1] = biological target: Voltage-dependent T-type calcium channel subunit alpha-1H (Homo sapiens, UniProt O95180); assay type: functional;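 note: channel activity triggered by adding a high calcium stimulation buffer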
HEK293 [2] = test: inhibition of NOD1-driven NF-kB reporter – cell-based, luminescence, uHTS, primary screen (AID 1578); assay type: functional; settings: Homo sapiens
[3] = blockers of HIV-1 ZM109 envelope-driven cell-cell fusion – HeLa effector, CEM target cells, luciferase, cherry-pick, dose response (AID 652058); assay type: functional, cell-based;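 note: luciferase signal from HIV-1 Env mediated cell-cell fusion of effector and target cells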
HEK293 [4] = test: cells; assay type: functional, cell-based; settings: Homo sapiens
HEK293 [5] = test: cells; assay type: functional, cell-based; settings: Homo sapiens; remark: listed apart in the source
[6] = blockers of HIV-1 envelope-mediated cell-cell fusion – cherry-pick, dose response (AID 652057); assay type: functional, cell-based
[7] = non-specific 3'UTR reporter inhibition in Clone20-Shn3RL – cell-based, Renilla luciferase, cherry-picked, counter-screen for Shn3 inhibitor project, dose response (AID 624133); assay type: functional
[8] = loss of viability in HepG2 cells – cell-based, CellTiter-Glo, cherry-picked, cytotoxicity control for Shn3 inhibitor project, dose response (AID 624134); assay type: functional
[9] = HIV-1 AD8 envelope cell-cell fusion blockers – cherry-pick, dose response (AID 652062); assay type: functional, cell-based;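 note: luciferase signal from cell-cell fusion driven by HIV-1 clade B AD8 Env; potency is for inhibitors of fusion seen as a drop in luminescence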
[10] = reduction of Shn3 3'UTR-driven luciferase in osteoblasts – cell-based, Clone20 osteoblasts, firefly luciferase, cherry-picked, dose response (AID 624132); assay type: functional;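 note: firefly luciferase luminescence from reporter carrying the Shn3 3'UTR in osteoblasts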
HEK293 [11] = test: NOD2 signaling inhibitors in MDP-stimulated cells, cell-based, uHTS, luminescence (AID 2001); assay type: functional; settings: Homo sapiens
[12] = biological target: Nucleotide-binding oligomerization domain-containing protein 2 (Homo sapiens, UniProt Q9HC29); test: inhibition of NOD2-driven NF-kB reporter – cell-based, luminescence, uHTS, HEK293 (AID 1566); assay type: functional
HEK293 [13] = test: cells; assay type: functional, cell-based; settings: Homo sapiens; remark: listed apart in the source
[14] = alpha-synuclein stem-loop luciferase translation blockers – H4 neuroglioma cells, luminescence, confirmation (AID 1988); assay type: functional, cell-based
[15] = Luminescence Cell-Based Dose Response HTS to Identify Inhibitors of 5'UTR Stem-Loop Driven Prion Protein mRNA Translation in H4 Neuroglioblastoma Cells. [Related pubchem assays: 1827 (Project Summary), 1813 (Primary HTS)]; assay type: functional
[16] = luciferase reporter signal suppression in cells – H4 neuroglioma cells, luminescence, dose response (AID 1990); assay type: functional, cell-based
[17] = HEK-293T cell viability reduction – luminescence, B-cell screen hits, cytotoxicity control for BCR NF-kB inhibitor project, dose response (AID 489021); assay type: functional, cell-based;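 note: HEK-293T cells carrying an NF-kB luciferase reporter; cells exposed to compound for about 14 hours before viability readout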
[18] = biological target: T1, Zinc finger protein mex-5 (Caenorhabditis elegans, UniProt Q9XUB2); test: potency of MEX-5 RNA-binding blockers – biochemical, C. elegans, fluorescence polarization, dose response (AID 1960)
T1 sequence (Q9XUB2 whole entry): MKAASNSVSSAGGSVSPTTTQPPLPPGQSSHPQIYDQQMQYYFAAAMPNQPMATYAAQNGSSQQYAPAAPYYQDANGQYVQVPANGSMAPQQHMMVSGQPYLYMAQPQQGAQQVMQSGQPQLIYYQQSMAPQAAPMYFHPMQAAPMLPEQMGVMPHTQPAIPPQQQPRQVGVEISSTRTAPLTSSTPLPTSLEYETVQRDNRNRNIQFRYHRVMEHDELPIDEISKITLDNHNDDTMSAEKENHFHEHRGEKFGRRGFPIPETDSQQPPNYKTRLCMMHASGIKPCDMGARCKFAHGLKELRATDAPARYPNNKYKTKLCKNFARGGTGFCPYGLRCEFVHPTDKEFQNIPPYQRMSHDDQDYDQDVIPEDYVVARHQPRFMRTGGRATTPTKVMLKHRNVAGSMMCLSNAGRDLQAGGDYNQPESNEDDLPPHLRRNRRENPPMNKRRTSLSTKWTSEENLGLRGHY

[19] = biological target: T2, RNA-binding protein pos-1 (Caenorhabditis elegans, UniProt G5EF15); test: disruptors of C. elegans POS-1 RNA interaction – biochemical, fluorescence polarization, dose response (AID 1964);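 note: purified POS-1 fused to maltose binding protein made in E. coli; potency of compounds blocking POS-1 binding to fluorescent RNA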
T2 sequence (G5EF15 whole entry): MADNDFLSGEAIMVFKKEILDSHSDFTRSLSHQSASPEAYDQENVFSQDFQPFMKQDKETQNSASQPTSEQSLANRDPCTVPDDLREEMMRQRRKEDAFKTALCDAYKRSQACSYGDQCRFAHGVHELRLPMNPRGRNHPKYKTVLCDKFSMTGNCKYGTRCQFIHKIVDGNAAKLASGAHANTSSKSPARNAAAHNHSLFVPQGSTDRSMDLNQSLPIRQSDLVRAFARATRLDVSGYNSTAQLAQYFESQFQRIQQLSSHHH

Troponin, cardiac muscle = Troponin, cardiac muscle (Homo sapiens, UniProt P19429+P45379+P63316); test: Fluorescence-based biochemical high throughput dose response assay for activators of the calcium sensitivity of cardiac Regulated Thin Filaments (RTF). [Related pubchem assays (depositor defined):AID493008, AID493018, AID504382, AID504383]; assay type: protein-complex assay
[20] = biological target: Heat shock protein HSP 90-alpha (Homo sapiens, UniProt P07900); assay type: functional, organism-based

O=C(c1ccccc1)c1cccc(NC(=O)c2ccc(Br)o2)c1
EC50 [1]: 7.3 µM (active)

O=C(NC1CCCCC1)C(c1ccccc1)N(Cc1ccc2c(c1)OCO2)C(=O)c1cnsn1 (centres undefined)
EC50 [1]: 4.5 µM (active)

Cc1cc(Cl)c(S(=O)(=O)N2CCSCC2)cc1OCC(=O)NC1CCCCC1
EC50 (HEK293 [2]): 2.58 µM (active) | AC50 [3]: 1.06 µM (active) | IC50 (HEK293 [4]): 4.29 µM (active) | IC50 (HEK293 [5]): > 20 µM (inactive) | AC50 [6]: 31.6 µM (active) | AC50 [7]: 5.08 µM (active) | AC50 [8]: 4.04 µM (active) | AC50 [9]: 4.1 µM (active) | AC50 [10]: 4.11 µM (active) | IC50 (HEK293 [11]): 3.6 µM (active) | EC50 [12]: 7.37 µM (active) | IC50 (HEK293 [13]): 9.2 µM (active)

COc1ccccc1C(=O)NCc1ccc(-c2nc3ccccc3s2)cc1
EC50 (HEK293 [2]): 6.77 µM (active) | IC50 (HEK293 [4]): 1.93 µM (active) | IC50 (HEK293 [5]): > 20 µM (inactive) | EC50 [14]: 312 nM (active) | IC50 (HEK293 [11]): 6.82 µM (inactive) | EC50 [15]: > 120 µM (not active) | EC50 [12]: 6.29 µM (active) | IC50 (HEK293 [13]): > 20 µM (inactive) | EC50 [16]: 15.2 µM (active)

Cc1ccccc1Nc1nc(Cl)c(C=O)s1
IC50 [17]: > 80 µM (inactive) | EC50 [18]: > 300 µM (not active) | EC50 [19]: > 300 µM (not active)

N=c1n(Cc2ccccc2)c2ccccc2n1CC(O)c1ccco1 (centres undefined)
EC50 (Troponin, cardiac muscle): > 71.5 µM (inactive)

Cc1ccc(CNC(=O)c2ccc(Cn3nc(C)c(Cl)c3C)o2)cc1
AC50 [20]: 8.04 µM (active) | EC50 [1]: 5.77 µM (active)

Source: ChEMBL document CHEMBL1201862, “PubChem BioAssay data set” (2004)
